# Assay results reported in patent US20080051365A1, “Treatment of Inflammation” (CAN-FITE BIOPHARMA LTD., priority 2004, published 2008).
# Key:
# [1] = cited from earlier work
# [2] = oral CF101, healthy young men; cited from earlier work
# [3] = system: Adjuvant induced Arthritis (AIA) rats; assay: Adjuvant induced arthritis (AIA) in rats, arthritis clinical score; format: in vivo, rat; conditions: female Lewis rats, CF101 10 μg/kg orally twice daily from day 14, MTX 0.25 or 0.75 mg/kg intraperitoneally every 3 days from day 14, versus vehicle
# Protocol: Female Lewis rats, aged 8-12 weeks were obtained from Harlan Laboratories (Jerusalem, Israel). Rats were maintained on a standardized pelleted diet and supplied with tap water. Experiments were performed in accordance with the guidelines established by the Institutional Animal Care and Use Committee at Can-Fite BioPharma, Petah Tikva, Israel. The rats were injected subcutaneously (SC) at the tail base with 100 μl of suspension composed of incomplete Freund's adjuvant (IFA) with 10 mg/ml heat killed Mycobacterium tuberculosis, (Mt) H37Ra, (Difco, Detroit, USA). Each group contained 10 animals.
# Treatment with CF101 (10 μg/kg) was initiated on day 14 after vaccination and was orally administered by gavage, twice daily. Another group was treated with Methotrexate (MTX) (0.25, 0.75 mg/kg) intraperitoneally every 3 days, starting on day 14th after vaccination. The control group in each experiment received vehicle only (DMSO in a dilution corresponding to that of the drugs).
# Clinical Disease Activity Score was assessed as follows: the animals were inspected every second day for clinical arthritis. […] The clinical score was calculated by adding the four individual legs' score. The inflammatory intensity was also determined in accordance with the increase in the rat hind paw's diameter, measured by caliper (Mitotoyo, Tokyo, Japan).
SMILES,half life in mice [1] [h],half life in human plasma [2] [h],disease severity evaluated by the arthritis clinical score [3]
"CNC(=O)[C@H]1OC(n2cnc3c(NCc4cccc(I)c4)ncnc32)[C@H](O)[C@@H]1O (stereo partly drawn) [CF101, 1-deoxy-1-[6-[[(3-iodophenyl)methyl]amino]-9H-purine-9-yl]-N-methyl-D-ribofuranuronamide]",1.5,8 to 10,significant decrease in disease severity
"CN(Cc1cnc2nc(N)nc(N)c2n1)c1ccc(C(=O)N[C@@H](CCC(=O)O)C(=O)O)cc1 [MTX, Methotrexate, reference compound]",–,–,significant decrease in disease severity
